Tests used:
cerebral aneurysm model = experiment: Inhibitory effect on formation of cerebral aneurysm in cerebral aneurysm model (EvG staining, size of aneurysm); type: in vivo, SD rat; details: 5 mL/kg, forced oral, once a day, Day 0 to Day 26
Description: A rat model of cerebral aneurysm was prepared according to the method disclosed on the literature by Hashimoto et al. (Surgical Neurology 1978, Vol. 10, p. 3-8). Namely, 50 mg/kg of pentobarbital was administrated intraperitoneally to a 7-week-old male SD rat, and the left common carotid artery and the left renal artery were ligated by using 10-0 nylon thread under anesthesia (this is referred to as the surgery for inducing cerebral aneurysm). From the day after surgery (Day 1), the rat was reared with being fed a high-salt diet. During a rearing period, the rat was given free access to water. Forced oral administration of 0.03 mg/5 mL or 0.1 mg/5 mL of the suspension of Compound 1 to the cerebral aneurysm model was conducted once a day at a dose of 5 mL/kg from the day after surgery, i.e., 1 day after surgery (Day 1) to 27 days after surgery (Day 27). It should be noted that forced oral administration of the 0.5% MC solution (0 mg/5 mL of the suspension of Compound 1) to the cerebral aneurysm model was conducted once a day at a dose of 5 mL/kg. The group of these rats was defined as a vehicle group. 28 Days after surgery (Day 28), the right olfactory artery/anterior cerebral artery bifurcation containing cerebral aneurysm was extirpated and was fixed with 4% paraformaldehyde, and then the solution was replaced with a 30% sucrose solution, and thereafter, the extirpated bifurcation was frozen to prepare a specimen of a frozen section having a thickness of 5 μm, by similar procedures to the steps 1) and 2) of the method of Reference Example 2. This specimen was subjected to EvG staining and the formation of cerebral aneurysm was confirmed. The size of cerebral aneurysm was measured and evaluation was conducted. The maximum diameter (Maximum) represents the maximum distance between internal elastic lamina disruption sites observed by EvG staining, the height “Height” represents the maximum value of height defined as the length of the perpendicular line drawn from the line connecting the two ends of internal elastic lamina, and the mean diameter “Mean” represents the mean value of the maximum diameter and the height. This evaluation was conducted on all the rats (8 or 9 rats) of each of the groups, and the mean value of each of the groups was calculated. The administration of 0.1 mg/5 mL of a suspension of Compound 2 to the cerebral aneurysm model was started on the day of the surgery (Day 0) at a dose of 5 mL/kg, and forced oral administration was conducted once a day until 26 days after surgery (Day 26). The size of cerebral aneurysm was measured by using the protocol of Example 1. […] The size of cerebral aneurysm was measured by using the protocol of Example 1. […] The size of cerebral aneurysm was measured by using the protocol of Example 1.

[1] = test system: Human carotid artery endothelial cells; experiment: Inhibitory action of S1P1 receptor antagonist on inhibitory effect of Compound 1 on permeability of endothelial cells; type: cell-based; details: antagonist 0.1 nM, 1 nM, 10 nM, or 100 nM with Compound 1 100 nM; FITC-dextran; FIG. 15
Description: Human carotid artery endothelial cells HCtAEC (Cell Applications) were seeded in the upper compartment of Transwell (diameter: 6.5 mm, pore size: 0.4 μm, collagen-Coated: Corning) so that the cell density was 1×10^5 cells/well, and the cells were cultured overnight in MesoEndo Growth Medium (Cell Applications) under a 5% CO2 atmosphere at 37° C. The medium was replaced with Endothelial Cell Serum-Free Defined Medium (Cell Applications), and the cells were further cultured overnight under the CO2 atmosphere at 37° C. Then, Compound 1 was added to the upper compartment and the lower compartment of Transwell so that the final concentration was 0 nM, 0.1 nM, 1 nM, 10 nM, or 100 nM, and the cells were cultured continuously. The well to which Compound 1 was not added was defined as a control. After culturing for 60 minutes, 250 μg/mL of fluorescein isothiocyanate (FITC)-dextran (2,000 kDa: Sigma-Aldrich) was added to the upper compartment of Transwell, and the amount of FITC-dextran which permeated into the lower compartment was determined by measuring the fluorescence intensity of the medium in the lower compartment after 5 minutes, 60 minutes, and 210 minutes. […]
After culturing for 60 minutes, the amount of FITC-dextran which permeated into the lower compartment was determined in a similar manner to Example 6.

SMILES: Cl.O=C(O)C1CCN(CC2=Cc3ccc(OCc4ccc(OCC(F)(F)F)c(C(F)(F)F)c4)cc3OC2)CC1 [Compound 2, 1-[(7-{[4-(2,2,2-trifluoroethoxy)-3-(trifluoromethyl)benzyl]oxy}-2H-chromen-3-yl)methyl]piperidine-4-carboxylic acid hydrochloride]
- formation of cerebral aneurysm (size) (cerebral aneurysm model; 0.1 mg/5 mL suspension, FIG. 11): inhibited the formation of cerebral aneurysm

SMILES: Cl.NC(CO)(CO)CCc1ccc(Sc2cccc(OCc3ccccc3)c2)cc1Cl [Compound 3, 2-amino-2-[2-[4-[3-(benzyloxy)phenylsulfanyl]-2-chlorophenyl]ethyl]propane-1,3-diol hydrochloride]
- formation of cerebral aneurysm (size) (cerebral aneurysm model; 0.01 mg/5 mL suspension, FIG. 12): inhibited the formation of cerebral aneurysm

SMILES: CCc1cc(/C(C)=N/OCc2ccc(C3CCCCC3)c(C(F)(F)F)c2)ccc1CN1CC(C(=O)O)C1 [Compound 4, 1-[4-[N-[4-cyclohexyl-3-(trifluoromethyl)benzyloxy]-1(E)-iminoethyl]-2-ethylbenzyl]azetidine-3-carboxylic acid]
- formation of cerebral aneurysm (size) (cerebral aneurysm model; 0.3 mg/5 mL suspension, FIG. 13): inhibited the formation of cerebral aneurysm

SMILES: CCn1c(Oc2cccc(N3CCN(C)CC3)c2)nnc1[C@@H](C)NS(=O)(=O)c1ccc2c(Cl)cccc2c1 [Compound At, 5-chloro-N-[(1R)-1-{4-ethyl-5-[3-(4-methylpiperazin-1-yl)phenoxy]-4H-1,2,4-triazol-3-yl}ethyl]naphthalene-2-sulfonamide]
- effect on the inhibitory effect of Compound 1 on permeability of endothelial cells [1]: inhibited the inhibitory effect of Compound 1 on permeability of endothelial cells in a concentration-dependent manner
